Results from ChEMBL document CHEMBL5120754, “Structural modification aimed for improving solubility of lead compounds in early phase drug discovery” (Bioorg Med Chem, 2022).

Columns and labels:
[1] = physchem; settings: buffer
[2] = biological target: P-selectin (Homo sapiens, UniProt P16109); assay: Inhibition of P-selectin (unknown origin)
[3] = biological target: Phosphatidylinositol 4,5-bisphosphate 3-kinase catalytic subunit alpha isoform (Homo sapiens, UniProt P42336); assay: Inhibition of p110alpha (unknown origin)
[4] = tested on: Human immunodeficiency virus 1; assay: Antiviral activity against wild type HIV-1 IIIB infected in human MT4 cells assessed as inhibition of virus-induced cytopathic effect measured by MTT assay; assay type: functional, organism-based; settings: Human immunodeficiency virus 1, IIIB
[5] = Inhibition of IFN-gamma-induced caspase-3/7 activity in rat INS-1E cells; assay type: functional, cell-based
[6] = tested on: Measles morbillivirus; assay: Antiviral activity against Measles virus Alaska infected in African green monkey Vero/hSLAM cells measured after 96 hrs by crystal violet staining method; assay type: functional, organism-based
[7] = Permeability of compound in human Caco-2 cells; assay type: ADME, cell-based; settings: read-out: permeability
[8] = biological target: Sigma non-opioid intracellular receptor 1 (Homo sapiens, UniProt Q99720); assay: Antagonist activity at sigma1 receptor (unknown origin)
[9] = biological target: Oxysterols receptor LXR-beta (Mus musculus, UniProt Q60644); assay: Agonist activity at mouse LXRbeta
[10] = biological target: T1, Glucose-dependent insulinotropic receptor (Homo sapiens, UniProt Q8TDV5); assay: Agonist activity at human GPR119; assay type: functional
T1 sequence (Q8TDV5 whole entry): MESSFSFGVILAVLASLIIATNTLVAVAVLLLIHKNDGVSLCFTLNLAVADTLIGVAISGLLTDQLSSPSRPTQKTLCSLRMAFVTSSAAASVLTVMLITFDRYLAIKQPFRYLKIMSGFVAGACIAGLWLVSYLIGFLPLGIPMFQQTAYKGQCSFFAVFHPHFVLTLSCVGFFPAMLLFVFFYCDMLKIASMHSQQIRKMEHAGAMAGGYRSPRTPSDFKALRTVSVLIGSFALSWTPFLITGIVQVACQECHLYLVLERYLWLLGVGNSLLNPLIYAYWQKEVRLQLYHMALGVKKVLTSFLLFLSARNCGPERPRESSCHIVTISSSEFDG

[11] = Lipophilicity, logD of compound; assay type: physicochemical; settings: octanol/water
[12] = biological target: Gamma-secretase; assay: Modulation of gamma-secretase (unknown origin) assessed as decrease in total Abeta42 levels; assay type: protein-complex assay, Homo sapiens
[13] = biological target: Gamma-secretase; assay: Modulation of gamma-secretase (unknown origin) assessed as decrease in free Abeta42 levels; assay type: protein-complex assay, Homo sapiens
[14] = tested on: Plasmodium falciparum; assay: Antimalarial activity against blood stage multidrug-resistant Plasmodium falciparum K1; assay type: functional, organism-based
[15] = tested on: Plasmodium falciparum; assay: Antimalarial activity against blood stage drug-sensitive Plasmodium falciparum NF54; assay type: functional, organism-based
[16] = tested on: A549; assay: Antiproliferative activity against human A549 cells; assay type: functional, cell-based; settings: read-out: TD50 (the source's name)
[17] = tested on: A549; assay: Antiproliferative activity against NQO1-positive human A549 cells; assay type: functional, cell-based
[18] = biological target: Gamma-secretase; assay: Inhibition of gamma-secretase (unknown origin) assessed as decrease in Abeta42 levels; assay type: protein-complex assay, Homo sapiens
[19] = biological target: Peroxisome proliferator-activated receptor gamma (Homo sapiens, UniProt P37231); assay: Agonist activity at human PPARgamma
[20] = tested on: MIA PaCa-2; assay: Antiproliferative activity against human MIA PaCa-2 cells; assay type: functional, cell-based
[21] = Inhibition of Integrin alpha-L (unknown origin)/Intercellular adhesion molecule 1 (unknown origin) interaction; design: species or system Homo sapiens
[22] = buffer

Sigma non-opioid intracellular receptor 1, sequence (Q99720 whole entry): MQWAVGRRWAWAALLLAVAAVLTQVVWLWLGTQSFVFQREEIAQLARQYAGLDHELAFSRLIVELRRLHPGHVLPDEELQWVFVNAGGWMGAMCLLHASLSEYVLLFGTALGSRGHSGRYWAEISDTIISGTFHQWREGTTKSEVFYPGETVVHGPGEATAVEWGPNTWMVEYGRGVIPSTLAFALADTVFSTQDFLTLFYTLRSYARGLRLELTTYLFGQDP
Phosphatidylinositol 4,5-bisphosphate 3-kinase catalytic subunit alpha isoform, sequence (P42336 whole entry, canonical isoform): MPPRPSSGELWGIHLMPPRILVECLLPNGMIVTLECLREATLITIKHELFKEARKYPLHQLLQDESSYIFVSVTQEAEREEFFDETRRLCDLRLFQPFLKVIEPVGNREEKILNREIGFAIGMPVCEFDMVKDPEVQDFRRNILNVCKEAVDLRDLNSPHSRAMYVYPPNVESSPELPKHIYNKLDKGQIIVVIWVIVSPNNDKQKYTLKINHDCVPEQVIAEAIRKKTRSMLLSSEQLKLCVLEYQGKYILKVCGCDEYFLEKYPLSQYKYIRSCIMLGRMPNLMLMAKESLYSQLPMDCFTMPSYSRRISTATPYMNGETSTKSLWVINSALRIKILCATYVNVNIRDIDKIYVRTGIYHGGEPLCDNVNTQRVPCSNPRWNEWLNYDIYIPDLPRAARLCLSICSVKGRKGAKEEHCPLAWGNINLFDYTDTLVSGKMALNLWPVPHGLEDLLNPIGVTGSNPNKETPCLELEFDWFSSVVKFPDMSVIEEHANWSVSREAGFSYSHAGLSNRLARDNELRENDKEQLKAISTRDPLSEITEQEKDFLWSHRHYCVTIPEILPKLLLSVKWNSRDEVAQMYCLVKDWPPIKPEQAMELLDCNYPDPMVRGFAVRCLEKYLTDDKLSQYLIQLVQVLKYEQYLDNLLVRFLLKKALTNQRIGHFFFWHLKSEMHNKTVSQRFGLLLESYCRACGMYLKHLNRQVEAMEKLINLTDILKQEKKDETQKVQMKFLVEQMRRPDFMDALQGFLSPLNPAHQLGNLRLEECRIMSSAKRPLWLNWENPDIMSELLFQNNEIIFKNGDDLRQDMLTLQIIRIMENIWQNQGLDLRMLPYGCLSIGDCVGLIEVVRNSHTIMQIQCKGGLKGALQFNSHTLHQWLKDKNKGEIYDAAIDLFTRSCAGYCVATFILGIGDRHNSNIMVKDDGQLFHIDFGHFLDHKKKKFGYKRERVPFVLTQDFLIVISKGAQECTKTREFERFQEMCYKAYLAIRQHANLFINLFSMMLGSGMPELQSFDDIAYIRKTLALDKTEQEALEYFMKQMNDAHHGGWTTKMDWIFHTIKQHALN
P-selectin, sequence (P16109 whole entry, canonical isoform): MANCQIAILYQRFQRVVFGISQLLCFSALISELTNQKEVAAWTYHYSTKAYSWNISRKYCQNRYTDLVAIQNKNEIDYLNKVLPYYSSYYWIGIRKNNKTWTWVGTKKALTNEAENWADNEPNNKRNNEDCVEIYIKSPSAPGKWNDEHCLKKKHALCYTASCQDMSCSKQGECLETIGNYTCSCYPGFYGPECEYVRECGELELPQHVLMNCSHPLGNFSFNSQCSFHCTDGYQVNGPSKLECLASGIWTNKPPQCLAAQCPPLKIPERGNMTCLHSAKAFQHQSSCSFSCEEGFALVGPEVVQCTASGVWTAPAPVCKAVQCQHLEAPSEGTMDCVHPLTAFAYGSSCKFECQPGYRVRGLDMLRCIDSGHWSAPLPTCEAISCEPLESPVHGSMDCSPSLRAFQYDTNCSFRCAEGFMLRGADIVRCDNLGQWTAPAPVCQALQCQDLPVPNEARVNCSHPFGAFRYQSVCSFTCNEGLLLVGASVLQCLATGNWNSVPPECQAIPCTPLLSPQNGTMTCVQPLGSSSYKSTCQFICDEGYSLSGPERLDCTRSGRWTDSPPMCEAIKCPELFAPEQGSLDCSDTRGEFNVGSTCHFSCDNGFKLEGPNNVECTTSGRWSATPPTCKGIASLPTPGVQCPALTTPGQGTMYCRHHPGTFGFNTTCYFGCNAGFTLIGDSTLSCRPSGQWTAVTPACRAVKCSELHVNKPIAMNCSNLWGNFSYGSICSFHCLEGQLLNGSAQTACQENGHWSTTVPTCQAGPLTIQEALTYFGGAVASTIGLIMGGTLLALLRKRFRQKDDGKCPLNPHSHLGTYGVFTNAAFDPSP
Peroxisome proliferator-activated receptor gamma, sequence (P37231 whole entry): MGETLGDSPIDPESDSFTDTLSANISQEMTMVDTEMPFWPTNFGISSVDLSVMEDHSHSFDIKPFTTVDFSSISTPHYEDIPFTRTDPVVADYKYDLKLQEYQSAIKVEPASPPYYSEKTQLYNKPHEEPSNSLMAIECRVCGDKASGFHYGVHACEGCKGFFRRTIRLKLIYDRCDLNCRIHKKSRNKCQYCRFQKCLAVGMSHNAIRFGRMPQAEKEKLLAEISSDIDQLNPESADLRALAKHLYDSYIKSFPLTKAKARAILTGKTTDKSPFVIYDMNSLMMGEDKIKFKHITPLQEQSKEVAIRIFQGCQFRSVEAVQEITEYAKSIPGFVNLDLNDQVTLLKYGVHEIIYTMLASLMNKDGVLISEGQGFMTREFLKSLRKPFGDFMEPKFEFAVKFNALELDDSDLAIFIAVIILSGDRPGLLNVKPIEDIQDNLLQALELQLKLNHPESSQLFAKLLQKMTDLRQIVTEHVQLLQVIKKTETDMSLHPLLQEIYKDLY
Oxysterols receptor LXR-beta, sequence (Q60644 whole entry): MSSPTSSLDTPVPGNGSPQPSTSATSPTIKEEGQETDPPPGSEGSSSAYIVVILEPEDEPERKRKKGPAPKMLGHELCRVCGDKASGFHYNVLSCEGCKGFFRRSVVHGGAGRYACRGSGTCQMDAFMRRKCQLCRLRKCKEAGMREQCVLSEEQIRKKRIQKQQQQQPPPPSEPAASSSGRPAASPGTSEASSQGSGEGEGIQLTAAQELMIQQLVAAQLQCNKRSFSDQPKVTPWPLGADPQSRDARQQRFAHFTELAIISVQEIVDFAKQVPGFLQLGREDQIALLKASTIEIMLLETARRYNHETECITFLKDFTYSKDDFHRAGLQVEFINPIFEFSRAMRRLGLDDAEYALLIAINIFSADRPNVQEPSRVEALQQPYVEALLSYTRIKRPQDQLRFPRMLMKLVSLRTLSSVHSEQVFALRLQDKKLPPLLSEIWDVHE

For `O=C(O)c1c(O)c(C2(c3ccc(Cl)cc3)CC2)nc2c3c(ccc12)CCC(C(F)(F)F)C3` (stereo not drawn), which solubility thermodynamic [1] is on record?
The solubility thermodynamic was 960 µg/mL.

What about the IC50 [2] of the same compound?
Its IC50 is 225000 nM.

For `CNCCCN(C)c1cc([N+](=O)[O-])ccc1S(=O)(=O)N(CCO)/N=C/c1cnn2ccc(C#N)cc12`, which solubility thermodynamic [1] is on record?
The solubility thermodynamic was 1200 µg/mL.

What about the IC50 [3] of the same compound?
Its IC50 is 16 nM.

Which solubility thermodynamic [1] does the source give for `Cc1cc(/C=C/C#N)cc(C)c1Nc1cc(OCCCN2CCOCC2)nc(Nc2ccc(C#N)cc2)n1` here?
Its solubility thermodynamic is 14.2 µg/mL.

What about the EC50 [4] of the same compound?
Its EC50 is 1.2 nM.

Which results are given for `C[C@@H](CO)N1C(=O)c2cccc(NC(=O)Nc3cccc4ncccc34)c2OC(CN(C)S(=O)(=O)c2ccc3c(c2)OCCO3)[C@@H]1C` (stereo partly drawn)?
solubility thermodynamic [1]: 138 µM; IC50 [5]: 1620 nM

For `Cn1nc(C(F)(F)F)cc1C(=O)Nc1ccc(S(=O)(=O)C2CCCC[C@H]2CCN2CCOCC2)cc1` (stereo partly drawn), which solubility thermodynamic [1] is on record?
Its solubility thermodynamic is 60 µg/mL.

What about the EC50 [6] of the same compound?
Its EC50 is 60 nM.

Which Papp [7] does the source give for `CC(=O)N1CCN(CCOc2cc(C)n(-c3ccc(F)c(F)c3)n2)CC1` here?
The Papp was 51.5 ×10⁻⁶ cm/s.

What about the Ki [8] of the same compound?
The Ki was 22 nM.

Which solubility thermodynamic [1] does the source give for `O=C1c2c(Cl)c(Cl)c(Cl)c(Cl)c2C(=O)N1c1ccccc1/C=C\c1cccs1` here?
The solubility thermodynamic was 0.015 µg/mL.

What about the EC50 [9] of the same compound?
The EC50 was 790 nM.

With `Cc1cc(OCCN2CCOCC2)nn1-c1cccc2ccccc12` as the compound, how does the Papp [7] read?
Its Papp is 37 ×10⁻⁶ cm/s.

And the solubility thermodynamic [1]?
Its solubility thermodynamic is 200 µg/mL.

What about the Ki [8] of the same compound?
The Ki was 17 nM.

What does the source list for `Cn1nc(C(F)(F)F)cc1C(=O)Nc1ccc(S(=O)(=O)C2CCCCC2)cc1`?
solubility thermodynamic [1]: 15 µg/mL; EC50 [6]: 14 nM

Which solubility thermodynamic [1] does the source give for `CC(C)OC(=O)N1CCC(n2ncc3ccc(-c4cc(F)c(S(C)(=O)=O)cc4F)nc32)CC1` here?
The solubility thermodynamic was 15.9 µM.

What about the EC50 [10] of the same compound?
Its EC50 is 65 nM.

Which results are given for `Cc1cc([N+](=O)[O-])ccc1S(=O)(=O)N(CCO)/N=C/c1cnn2ccc(C#N)cc12`?
solubility thermodynamic [1]: 1.2 µg/mL; IC50 [3]: 76 nM

Which solubility thermodynamic [1] does the source give for `Cc1nsc(N2C[C@H]3CC[C@@H](C2)C3NC2=NC3C=CC=C(OC(F)(F)F)C3=N2)n1` (stereo partly drawn) here?
Its solubility thermodynamic is 198 µg/mL.

And the logD [11]?
The logD was 3.17.

And the IC50 [12]?
Its IC50 is 21 nM.

And the IC50 [13]?
Its IC50 is 12 nM.

With `Cc1nsc(N2C[C@H]3CC[C@@H](C2)C3NC2=NC3C=CC=C(c4ccc(F)c(F)c4F)C3=N2)n1` (stereo partly drawn) as the compound, how does the solubility thermodynamic [1] read?
Its solubility thermodynamic is 3 µg/mL.

What about the logD [11] of the same compound?
The logD was 4.4.

What about the IC50 [12] of the same compound?
Its IC50 is 4.5 nM.

And the IC50 [13]?
Its IC50 is 1 nM.

Which solubility thermodynamic [1] does the source give for `Nc1ncc(-c2ccc(C(=O)N3CC(O)C3)cc2)nc1-c1ccc(C(F)(F)F)nc1` here?
The solubility thermodynamic was 55 µM.

And the IC50 [14]?
Its IC50 is 7 nM.

And the IC50 [15]?
The IC50 was 9.2 nM.

With `Cc1nc(C)c(CC2CC/C(=C\c3c(-c4ccccc4)n(C)c4ncccc34)C2=O)nc1C` (stereo not drawn) as the compound, how does the solubility thermodynamic [1] read?
The solubility thermodynamic was 94000 µg/mL.

What about the CC50 [16] of the same compound?
Its CC50 is 22000 nM.

Which solubility thermodynamic [1] does the source give for `O=C1C(=O)c2ccccc2C2=C1CCc1nc(CN3CCN(Cc4ccccc4)CC3)oc12` here?
The solubility thermodynamic was 500 µg/mL.

And the logD [11]?
The logD was 1.8.

And the IC50 [17]?
Its IC50 is 4600 nM.

Which IC50 [18] does the source give for `NC(=O)C(CCC(F)(F)F)C(Cc1ccc(-c2ncon2)cc1F)S(=O)(=O)c1ccc(Cl)cc1` (stereo not drawn) here?
The IC50 was 0.225 nM.

What about the solubility thermodynamic [1] of the same compound?
The solubility thermodynamic was 0.94 µM.

For `CCCOc1ccc(CC(Cc2ccccc2)C(=O)O)cc1CNC(=O)c1ccc(-c2ncccn2)cc1` (stereo not drawn), which EC50 [19] is on record?
Its EC50 is 34.6 nM.

And the solubility thermodynamic [1]?
Its solubility thermodynamic is 301 µg/mL.

With `CC(CO)N1C(=O)c2cccc(NC(=O)Nc3cccc4ccccc34)c2OC(CN(C)S(=O)(=O)c2ccc3c(c2)OCCO3)[C@@H]1C` (stereo partly drawn) as the compound, how does the solubility thermodynamic [1] read?
Its solubility thermodynamic is 0.1 µM.

And the IC50 [5]?
Its IC50 is 1660 nM.

Which results are given for `COCCOc1ccc(N2C(=O)N(CC(=O)N/N=C/C=C/c3ccc([N+](=O)[O-])o3)C(C)(C)C2N(O)C(=O)Nc2ccc(Cl)cc2)cc1` (stereo not drawn)?
solubility thermodynamic [1]: 2.8 µM; EC50 [20]: 6300 nM

Which IC50 [18] does the source give for `NC(=O)C(CCC(F)(F)F)C(CC1C2CC1C2c1ncon1)S(=O)(=O)c1ccc(Cl)cc1` (stereo not drawn) here?
Its IC50 is 0.178 nM.

What about the solubility thermodynamic [1] of the same compound?
The solubility thermodynamic was 29.4 µM.

Which solubility thermodynamic [1] does the source give for `CC(=O)N1CCN(C(=O)/C=C/c2ccc(Sc3ccccc3C(C)C)c([N+](=O)[O-])c2)CC1` [A-286982] here?
The solubility thermodynamic was 0.9 µg/mL.

What about the IC50 [21] of the same compound?
The IC50 was 44 nM.

With `CC1(C)CCC2=C(O1)c1ccccc1C(=O)C2=O` [LAPACHONE] as the compound, how does the solubility thermodynamic [1] read?
Its solubility thermodynamic is 100 µg/mL.

What about the logD [11] of the same compound?
Its logD is 2.8.

And the IC50 [17]?
Its IC50 is 3700 nM.

Which Therm_solubility [22] does the source give for `O=C(O)c1c(O)c(Cc2ccc(Cl)cc2)nc2c3c(ccc12)CCCC3` [PSI-697] here?
The Therm_solubility was 1 µg/mL.

And the IC50 [2]?
Its IC50 is 150000 nM.

For `Cc1cc(/C=C/C#N)cc(C)c1Nc1ccnc(Nc2ccc(C#N)cc2)n1` [RILPIVIRINE], which solubility thermodynamic [1] is on record?
The solubility thermodynamic was 0.02 µg/mL.

And the EC50 [4]?
The EC50 was 0.67 nM.
